Values quoted from earlier work as cited in patent US20240173254A1, “TASIPIMIDINE FORMULATIONS AND USE THEREOF” (ORION CORPORATION, priority 2021, published 2024).

Experiments:
[1] = test system: dogs
[2] = in vivo

## COc1cccc2c1CCOC2C1=NCCN1 (centres unmarked) [tasipimidine, 2-(5-methoxyisochroman-1-yl)-4,5-dihydro-1H-imidazole]
[1]
  relieving situational anxiety and fear triggered by noise or owner departure: effective
[2]
  elimination half-life (t1/2) compared with clonidine: shorter elimination half-life (t1/2) than clonidine
